Experiments:
female prairie voles = test: Partner preference test immediately after 6 hour cohabitation (experiment 1); type: in vivo, prairie vole; conditions: intraperitoneal, tested immediately after cohabitation, FIG. 1
From the text: Social bonding in prairie voles is a complex social cognitive process, which involves the synthesis of social motivation, social information process and social learning. Bonding can be efficiently assayed in the laboratory using a partner preference paradigm (Ahern, 2009). The formation of a partner preference in female prairie voles is dependent on OT (Williams, 1994). In the absence of mating, 24 hrs of cohabitation is typically needed for the development of a partner preference. However, OT administration accelerates partner preference formation to 6 hrs or less. […] Melanotan I (MTI) and Melanotan II (MTII), synthetic α-MSH analogues, which act on melanocortin ¾ receptors, and busprione (BUS), a 5-HT1a receptor partial agonist, We administered to female prairie voles and assessed partner preference. […]
Female prairie voles were injected intraperitoneally with either Melanotan II (1.10 mg/kg; Sigma Aldrich, St. Louis, Mo.), buspirone (8, 30 mg/kg; Sigma Aldrich, St. Louis, Mo.) or a saline control in a dissolved in a volume of 0.1 ml 0.1% sterile saline. […] The pairs were cohabitated for six hours and video recorded to monitor for sexual behavior. […] The videos were analyzed afterwards for mating attempts and animals that mated were excluded from the study. […] The time the subject spent in side by side contact with no joint motion was scored using the CleverSys Behavioral Analysis System. […]

female voles = conditions: OT administered; without mating 24 hrs or more needed; cited from earlier work

Structure (SMILES) | time spent with the partner male vs. the stranger male (partner preference) (female prairie voles; high dose) | time spent with the partner male vs. the stranger male (partner preference) (female prairie voles; low dose) | cohabitation period to partner preference formation (female voles) [h]
O=C1CC2(CCCC2)CC(=O)N1CCCCN1CCN(c2ncccn2)CC1 [BUS, buspirone] | failed to spend significantly more time with either stimulus animal | spent significantly more time with the partner male vs. the stranger male | –
CC[C@H](C)[C@@H]1NC(=O)[C@H](Cc2ccc(O)cc2)NC(=O)[C@@H](N)CSSC[C@@H](C(=O)N2CCC[C@H]2C(=O)N[C@@H](CC(C)C)C(=O)NCC(N)=O)NC(=O)[C@H](CC(N)=O)NC(=O)[C@H](CCC(N)=O)NC1=O [OT, Oxytocin] | – | – | ≤ 6

— patent US10058584B2, “Methods of improving behavioral therapies” (Emory University, priority 2010, dated 2018)
